In PubChem BioAssay (NCI) one finds TGI and GI50 data, which are given here for 14 compounds.

What all share (assay): inhibition of tumour cell growth, NCI panel, 48 h
Assay [1] relates to OVCAR-4 ovarian.
Assay [2] deals with SF-295 CNS.
Assay [3] concerns M14 melanoma.
Assay [4] has as its system HL-60(TB) leukemia.
In assay [5] the test system is UACC-257 melanoma.
In assay [6] the test system is IGROV1 ovarian.
Assay [7] relates to SK-OV-3 ovarian.
Assay [8] deals with SNB-75 CNS.
The test system of assay [9] is SR leukemia.

SMILES strings stand for the structures.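 Five concentrations, 48 hours, 96-well plates. GI50 marks 50% less growth. TGI denotes the concentration required for complete inhibition of growth.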

Consider `N/N=C1\C(=O)N(C2CCCCCC2)C(=O)C1C(=O)NC1CCCCCC1` (stereo not drawn), for which the TGI in assay [1] was greater than 100 µM; in [2], greater than 100 µM; in assay [3] it was greater than 100 µM; in assay [4] it was 45.1 µM; in assay [5], greater than 100 µM; in assay [6] it was greater than 100 µM.
For the compound `O=C(CCC(=O)Nc1ccc(Cl)c(Cl)c1)CC(=O)c1ccc(Br)cc1`, the TGI in assay [1], in assay [7], in assay [3], in [5], in [6] and in assay [8] was greater than 100 µM in each case.
For `C=C1C(=O)OC2C/C(C)=C/CC/C(C)=C/CCC3(COC(C)=O)OC3CC12` (stereo not drawn), the TGI in assay [1] stood at 46.5 µM; in assay [7], 26.7 µM; in assay [2], 29.3 µM; in assay [3] it was 18.5 µM; in assay [4] it was 5.85 µM; in [5], 29.6 µM. Also, the TGI was determined as 31.9 µM in [6] and 27.6 µM in assay [8].
For `Cc1nn[n-]n1.N.N.N.N.N.[Cl-].[Co+3]`, the GI50 in [1], in assay [7], in assay [2], in assay [9], in assay [3] and in assay [4] was greater than 100 µM each time. Besides, the GI50 in [5], in assay [6] and in [8] was greater than 100 µM throughout. Besides, the TGI in assay [1], in [7], in assay [2], in assay [9], in assay [3] and in assay [4] was greater than 100 µM throughout. Moreover, the TGI in assay [5], in [6] and in assay [8] was greater than 100 µM in each case.
Turning to `CC[n+]1oc(C(=O)c2ccc(Cl)cc2)c(-c2ccccc2)c1-c1ccccc1.[Cl][Fe]([Cl])([Cl])[Cl]`, the GI50 is 65.7 µM in [1]; 46.7 µM in assay [7]; 53.1 µM in [2]; 33 µM in [9]; 52.5 µM in assay [3]; 83.6 µM in assay [4]. Moreover, in [8], the GI50 is 30.4 µM. Besides, the TGI in assay [1], in assay [7], in assay [2], in [9], in assay [3] and in assay [4] was greater than 100 µM in each case. The TGI in assay [5] was 15.5 µM; in [8], greater than 100 µM.
Consider `CC(C)(C)c1cc(C(O)(C(F)(F)F)C(F)(F)F)c2c(c1)C(C(F)(F)F)(C(F)(F)F)OC(C)(C(C)(C)C)N2` (stereo not drawn), for which the TGI was greater than 100 µM in assay [1]; 6.14 µM in [7]; 16.9 µM in [2]; 8.45 µM in assay [9]; 13.6 µM in assay [3]; 27.4 µM in assay [5]. For the same compound, the TGI in assay [6] was greater than 100 µM; in assay [8], 8.96 µM.
In the case of `COC(=O)/C=C(C)/C=C/C1OC(C)OCC1O` (stereo not drawn), the TGI in assay [1], in [7], in assay [2], in [3], in assay [4] and in assay [5] was greater than 100 µM in each case. This compound also showed a TGI in assay [6] greater than 100 µM.
`N#CN/C(N)=N/C/N=C(\N)NC#N`: the TGI is greater than 100 µM in [1]; greater than 100 µM in assay [7]; greater than 100 µM in assay [2]; 93.5 µM in assay [9]; greater than 100 µM in [3]; greater than 100 µM in assay [4]. Further, the TGI in assay [5], in assay [6] and in assay [8] was greater than 100 µM each time.
Consider `CCNC(=O)COc1ccc(Br)cc1Br`, for which the TGI in [1], in [7], in assay [2], in assay [9], in [3] and in assay [4] was greater than 100 µM throughout. The TGI in [5], in assay [6] and in [8] was greater than 100 µM throughout.
As for `CC(=O)N/N=C1\CC(C)(C)C2CCC1C2` (stereo not drawn), the TGI in [1], in assay [7], in [2], in [3], in [4] and in [5] was greater than 100 µM in each case. In addition, the TGI in [6] and in assay [8] was greater than 100 µM throughout.
For `CCC1CC2C(=O)N(c3ccccc3)C(=O)C2c2[nH]c3ccccc3c21` (stereo not drawn), the TGI in [1] was 25.6 µM; in assay [7], 29.3 µM; in [2], 29.8 µM; in [9] it was greater than 100 µM; in [3] it was greater than 100 µM; in assay [4] it was 98 µM. The TGI in assay [6] is 30.6 µM; in [8] it was 13 µM.
In the case of `CC1=CC(=O)CC2(C)CC[C@@H]3C[C@]12OC3(C)C` (stereo partly drawn), the TGI in assay [1], in [7], in assay [2], in [9], in assay [3] and in assay [4] was greater than 100 µM throughout. In addition, the TGI in [5], in assay [6] and in assay [8] was greater than 100 µM each time.
On to `COc1ccc(OC)c(NC(=O)CCC/C(CC(=O)c2ccc(O)c(OC)c2)=N\Nc2nnc(C)n2N)c1`, for which the TGI in assay [1], in [7], in assay [2], in [9], in assay [3] and in assay [4] was greater than 100 µM throughout. The TGI in [5], in assay [6] and in assay [8] was greater than 100 µM each time.
Take `COC/C=C\COC`: the TGI in assay [1], in assay [7], in assay [2], in [3], in [4] and in assay [5] was greater than 100 µM throughout. Also, the TGI in [6] and in assay [8] was greater than 100 µM each time.
